Key:
[1] = test system: patients with relapsing form of clinically definite MS who relapsed while taking Rebif®; assay: Example 2: oral Cladribine added to Rebif in MS patients with a relapse while taking Rebif (MRI brain lesions, safety); format: in vivo, human
[2] = test system: patients with primary progressive (PP) or secondary progressive (SP) multiple sclerosis; conditions: Phase III; 0.07 mg/kg/day s.c., repeated for 2 or 6 months; cited from earlier work
[3] = test system: patients with Chronic Progressive MS and Relapsing-Remitting MS; conditions: cited from earlier work
[4] = test system: patients with relapsing forms of clinically definite multiple sclerosis; assay: Example 1: oral Cladribine in patients with relapsing forms of MS (MRI brain lesions, safety); format: in vivo, human; conditions: for brain lesions (MRI): then maintenance
Description: Each patient is first examined for normal hepatic, renal, and bone marrow functioning to establish baseline values. Patients are selected from Male or Female, between 18 and 55 years of age who had one or more relapses within the prior 12 months. Female patients are non-pregnant female. […] Patients are monitored to determine whether there is any progression or improvement of brain lesions associated with progression of MS through MRI scans and neurological examination as described in Miller et al., 1996, above; Evans et al., 1997, above; Sipe et al., 1984, above; and Mattson, 2002, above. All patients have a baseline and MRI study (brain or spinal cord, according to localization of the lesions) at month 12. The patient's disability progression and the time for having a first relapse are monitored as well as the proportion of relapse-free patients at 24 months. Lymphocyte markers and monocyte counts are monitored in the patients.

[5] = test system: patients with remitting-relapsing multiple sclerosis; conditions: oral, 6 monthly courses of 5 days, total dose about 4-5.7 mg/kg; compared with i.v. infusion study (Sipe et al., 1994); cited from earlier work
[6] = oral 2-CdA induction and maintenance treatments combined with Rebif 44 mcg s.c. TIW, 96 weeks
[7] = oral 2-CdA cyclodextrin tablets, induction treatment followed by maintenance treatments

Nc1nc(Cl)nc2c1ncn2[C@H]1C[C@H](O)[C@@H](CO)O1 [Cladribine, 2-chloro-2′deoxyadenosine]
brain lesions (MRI) ([1]; Group 2: low dose cladribine (1.75 mg/kg induction + 1.75 mg/kg maintenance) added to Rebif 44 mcg s.c. TIW): decrease in brain lesions
brain lesions (MRI) ([1]; Group 3: high dose cladribine (3.5 mg/kg induction + 1.75 mg/kg maintenance) added to Rebif 44 mcg s.c. TIW): decrease in brain lesions
adverse effects [1, 6]: no severe adverse effect is observed
effect of the regimen on brain lesions [1, 6]: efficient in decreasing brain lesions
MRI-measured brain lesions [2]: significant reduction of MRI-measured brain lesions
EDSS, SNRS scores and MRI findings ([3]; Phase II, 0.1 mg/kg/day 7 days i.v. x 4 months or 0.07 mg/kg/day 5 days s.c. x 6 months): positive effects
adverse effects (AEs) ([3]; observed with the highest doses (Selby et al., 1998; Beutler et al., 1994)): increased incidence of infections related to compromised immune function or myelosuppression
brain lesions (MRI) ([4]; Group 2: oral 2-CdA total dose 1.75 mg/kg over 2 months induction): decrease in brain lesions
brain lesions (MRI) ([4]; Group 3: oral 2-CdA total dose 3.5 mg/kg over 4 months induction): decrease in brain lesions
adverse effects [4, 7]: no severe adverse effect is observed
effect of the regimen on brain lesions [4, 7]: efficient in decreasing brain lesions
side effects [5]: less severe

Reference: US12377056B2, “Cladribine regimen for treating multiple sclerosis” (priority 2006, dated 2025)
